Test results published in patent US8815535B2, “Disk diffusion assay for oritavancin” (The Medicines Company, priority 2011, dated 2014).
“And” between values parts separate entries of the source, which are not always exact repeats. Equal values may be shown once. Read-outs that look alike come from different tables or passages of the source.

Columns and labels:
Assay in all cases: Disk diffusion assay (zone of inhibition)
Assay type in all cases: cell-based, Staphylococcus aureus
MSSA U781969 = settings: 20 μl of 1.25 mg/ml in 4% P80/Span 80 (1:1), calcium alginate swabs, dried overnight, duplicate
Experimental: (§1) Oritavancin powder was dissolved in freshly-prepared solutions of the indicated excipients at concentrations of 0.625, 1.25, 2.5, 5, and 10 mg/ml (adjusted for potency based on lot 875561L00 purity of 83.1%) by vortexing for a minimum of 5 minutes. Oritavancin solutions in the various excipients, while not visually clear, were free from any apparent particulates as assessed visually. Sterile Oxoid blank disks were impregnated with 20 μl of these oritavancin solutions, resulting in oritavancin disk loads ranging from 12.5 to 200 μg. Unless indicated otherwise, disks were allowed to dry overnight at room temperature prior to use.
(§2) Bacterial suspensions from isolated colonies on overnight cation-adjusted Mueller Hinton agar plates were prepared in sterile saline and adjusted to an optical density of 0.1 at 600 nm Standard cation-adjusted Mueller Hinton agar plates (90 mm diameter) were seeded with bacterial suspensions by initially swabbing the center of plate then moving outward. Swabbing was continued at a right angle and then at an oblique angle to the first and second swabs. Disks were placed upon the seeded plates with sterile forceps. Plates were then incubated overnight at 37° C. and inhibition zone diameters were measured with a ruler and reported in millimeters.

MRSA Q670607 = settings: 20 μl of 1.25 mg/ml in 4% P80/Span 80 (1:1), calcium alginate swabs, dried overnight, duplicate
Experimental: as §1, §2

MSSA U933236 = settings: 20 μl of 1.25 mg/ml in 4% P80/Span 80 (1:1), calcium alginate swabs, dried overnight, duplicate
Experimental: as §1, §2

MSSA S815246 = settings: 20 μl of 1.25 mg/ml in 4% P80/Span 80 (1:1), calcium alginate swabs, dried overnight, duplicate
Experimental: as §1, §2

MRSA Q141067 = settings: 20 μl of 1.25 mg/ml in 4% P80/Span 80 (1:1), calcium alginate swabs, dried overnight, duplicate
Experimental: as §1, §2

MSSA T811355 = settings: 20 μl of 1.25 mg/ml in 4% P80/Span 80 (1:1), calcium alginate swabs, dried overnight, duplicate
Experimental: as §1, §2

MSSA ATCC 25923 = settings: for Average zone diameter: disks from 18 mg/ml oritavancin in 5% P80, 3-hour prediffusion; for zone of inhibition at 9000 µg/mL: read-out: Inhibition zone diameter, ATCC 25923; for zone of inhibition at 50 µg/disc: read-out: Inhibition zone diameter, MSSA ATCC 25923, 50 μg oritavancin, dried approx. 3 hours, estimate of diameter
Source text: The study was designed to identify conditions that improve oritavancin diffusion in agar and consequently yield a zone diameter ≧15 mm for the CLSI quality control strain MSSA ATCC 25923. Excipients that increased the disk diffusion of oritavancin in agar relative to disks containing only oritavancin were identified and selected for further study. […] A prediffusion step at room temperature was introduced to maximize oritavancin diffusion prior to initiation of bacterial growth. In this step, the antimicrobial disks were placed on agar plates seeded with a bacterial isolate and incubated at room temperature for 3 hours. Plates were then incubated overnight at 37° C. Zone diameters around the disks in which bacterial growth was inhibited were measured with a ruler and reported in millimeters.
Ethanol-sterilized Whatman paper disks (6 mm diameter) were allowed to dry then impregnated with 20 microliters of oritavancin solution containing total amounts ranging from 90 to 360 micrograms. Disks were allowed to dry at room temperature for various times prior to use.
Bacterial suspensions were prepared and adjusted to an optical density of 0.1 at 600 nm. […] The plate was swabbed a second time, perpendicular to the orientation of the first swab. To assess the impact of prediffusion on diameter of inhibition zones, two disks were immediately placed on one half of the plate and the plate was incubated for 3 hours at room temperature. After 3 hours, two additional disks were placed on the other half of the plate then the plate was incubated overnight at 37° C. Zone diameters were measured with a ruler and reported in millimeters. […]
as §1
[…] Swabbing was continued at a right angle and then at an oblique angle to the first and second swabs. Disks were placed upon the seeded plates with sterile forceps. Plates were then incubated overnight at 37° C. and inhibition zone diameters were measured with a ruler and reported in millimeters.

[1] = Staphylococcus aureus, MSSA, read-out: Inhibition zone diameter
[2] = Staphylococcus aureus, MRSA, read-out: Inhibition zone diameter

`CN[C@H](CC(C)C)C(=O)N[C@H]1C(=O)N[C@@H](CC(N)=O)C(=O)N[C@H]2C(=O)N[C@H]3C(=O)N[C@H](C(=O)N[C@H](C(=O)O)c4cc(O)cc(O)c4-c4cc3ccc4O)[C@H](O[C@H]3C[C@](C)(N)[C@@H](O)[C@H](C)O3)c3ccc(c(Cl)c3)Oc3cc2cc(c3O[C@@H]2O[C@H](CO)[C@@H](O)[C@H](O)[C@H]2O[C@H]2C[C@](C)(NCc3ccc(-c4ccc(Cl)cc4)cc3)[C@@H](O)[C@H](C)O2)Oc2ccc(cc2Cl)[C@H]1O` [oritavancin, N-(4-(4-chlorophenyl)benzyl)A82846B] was tested, and the Inhibition zone diameter (MSSA U781969) was 23 mm, the zone of inhibition at 1250 µg/mL (MSSA U781969; [1]) was 22 mm and the Inhibition zone diameter (MRSA Q670607) was 22 mm. It also gave a zone of inhibition at 1250 µg/mL (MRSA Q670607; [2]) of 21 mm, an Inhibition zone diameter (MSSA U933236) of 22 mm and a zone of inhibition at 1250 µg/mL (MSSA U933236; [1]) of 21 mm. For the same molecule, the Inhibition zone diameter (MSSA S815246) was 22 mm, the zone of inhibition at 1250 µg/mL (MSSA S815246; [1]) was 21 mm and the Inhibition zone diameter (MRSA Q141067) was 22 mm. It also gave a zone of inhibition at 1250 µg/mL (MRSA Q141067; [2]) of 21 mm, an Inhibition zone diameter (MSSA T811355) of 22 mm and a zone of inhibition at 1250 µg/mL (MSSA T811355; [1]) of 21 mm. For the same molecule, the Inhibition zone diameter (MSSA ATCC 25923; ATCC 25923, 25 μg (20 μl of 1.25 mg/ml) in 4% P80/Span 80 (1:1), calcium alginate swab, dried overnight) was 22 mm and 20 mm, the Inhibition zone diameter (MSSA ATCC 25923; ATCC 25923, 20 μl of 9 mg/ml oritavancin in 2.5% P80, prediffusion at 4° C. 3 h, duplicate determinations) was 19 mm and the Inhibition zone diameter (MSSA ATCC 25923; ATCC 25923, 20 μl of 9 mg/ml oritavancin in 2.5% P80, prediffusion at 4° C. 6 h, duplicate determinations) was 22 mm. For the same molecule, the Inhibition zone diameter (MSSA ATCC 25923; ATCC 25923, 20 μl of 9 mg/ml oritavancin in 2.5% P80, prediffusion at room temperature 3 h, duplicate determinations) was 17 mm, the Inhibition zone diameter (MSSA ATCC 25923; ATCC 25923, 20 μl of 9 mg/ml oritavancin in 2.5% P80, prediffusion at room temperature 6 h, duplicate determinations) was 18.5 mm and the Inhibition zone diameter (MSSA ATCC 25923; ATCC 25923, Oxoid disks, 20 μl of 18 mg/ml oritavancin in 5% P80, stored 30 days at room temperature, prediffusion 6 hours at 4° C.) was 17.5 mm. The Average zone diameter (MSSA ATCC 25923; ATCC 25923, stored 1 day at room temperature) was 15.0 mm, the Average zone diameter (MSSA ATCC 25923; ATCC 25923, stored 4 days at room temperature) was 15.8 mm and the Average zone diameter (MSSA ATCC 25923; ATCC 25923, stored 6 days at room temperature) was 16.3 mm. For the same molecule, the Average zone diameter (MSSA ATCC 25923; ATCC 25923, stored 8 days at room temperature) was 17.0 mm, the Average zone diameter (MSSA ATCC 25923; ATCC 25923, used same day) was 14.0 mm and the “Increase of the area of the zone of clearance by prediffusion” value (MSSA ATCC 25923; MSSA ATCC 25923, 360 μg oritavancin in 0.002% P80) was “approximately 24%”. The Zone diameters (MSSA ATCC 25923; MSSA ATCC 25923, CAMHA containing 1% P80, disks with various concentrations of oritavancin in 0.002% P80, even with 3 h prediffusion) was < 15 mm, the Inhibition zone diameter (MSSA ATCC 25923; MSSA ATCC 25923, Oxoid disk, 180 μg, 5% P80, stored 7 days, prediffusion 3 h at 4° C., duplicates) was 12.5 mm and the Inhibition zone diameter (MSSA ATCC 25923; MSSA ATCC 25923, Oxoid disk, 270 μg, 5% P80, stored 7 days, prediffusion 3 h at 4° C., duplicates) was 13.5 mm. The Inhibition zone diameter (MSSA ATCC 25923; MSSA ATCC 25923, Whatman #5 disk, 180 μg, 2.5% P80, stored 7 days, prediffusion 3 h at 4° C., duplicates) was 16 mm, the Inhibition zone diameter (MSSA ATCC 25923; MSSA ATCC 25923, Whatman #5 disk, 360 μg, 5% P80, stored 7 days, prediffusion 3 h at 4° C., duplicates) was 16.5 mm and the Zone diameter (MSSA ATCC 25923; MSSA quality control strain ATCC 25923, different combinations of the alterations to the traditional assay) was “up to 24 mm”. For the same molecule, the zone of inhibition at 360 µg/disc (MSSA ATCC 25923; Staphylococcus aureus, 3 h, read-out: Average zone diameter, ATCC 25923, 360 μg oritavancin, excipient 10% HPCD, disks made same day, 3 h prediffusion, average of 2 disks) was 17.5 mm, the zone of inhibition at 9000 µg/mL (MSSA ATCC 25923; Staphylococcus aureus, 3 h, 20 μl of 9 mg/ml oritavancin in 2.5% P80, prediffusion at 4° C. 3 h, duplicate determinations) was 18 mm and the zone of inhibition at 9000 µg/mL (MSSA ATCC 25923; Staphylococcus aureus, 3 h, 20 μl of 9 mg/ml oritavancin in 2.5% P80, prediffusion at room temperature 3 h, duplicate determinations) was 16.5 mm. For the same molecule, the zone of inhibition at 50 µg/disc (MSSA ATCC 25923; Staphylococcus aureus, 3 h, 0.5% P80/Span 80 (35:65) in water) was 10 mm, the zone of inhibition at 50 µg/disc (MSSA ATCC 25923; Staphylococcus aureus, 3 h, 1% P80/Span 80 (35:65) in water) was 15 mm and the zone of inhibition at 50 µg/disc (MSSA ATCC 25923; Staphylococcus aureus, 3 h, 2% P80/Span 80 (35:65) in water) was 20 mm. The zone of inhibition at 50 µg/disc (MSSA ATCC 25923; Staphylococcus aureus, 3 h, 4% P80/Span 80 (35:65) in water) was 28 mm, the zone of inhibition at 9000 µg/mL (MSSA ATCC 25923; Staphylococcus aureus, 6 h, 20 μl of 9 mg/ml oritavancin in 2.5% P80, prediffusion at 4° C. 6 h, duplicate determinations) was 21 mm and the zone of inhibition at 9000 µg/mL (MSSA ATCC 25923; Staphylococcus aureus, 6 h, 20 μl of 9 mg/ml oritavancin in 2.5% P80, prediffusion at room temperature 6 h, duplicate determinations) was 18 mm. It also gave a zone of inhibition at 360 µg/disc (MSSA ATCC 25923; Staphylococcus aureus, 192 h, read-out: Zone diameter (mm ± SD), ATCC 25923, 360 μg in 5% P80, Experiment 2, disks stored 8 days, no prediffusion) of 14.5 mm, a zone of inhibition at 360 µg/disc (MSSA ATCC 25923; Staphylococcus aureus, 216 h, read-out: Average zone diameter, MSSA ATCC 25923, 360 μg oritavancin in 0.002% P80, without prediffusion, two disks (FIG. 1A), disks stored 9 days) of 10.5 mm and a zone of inhibition at 360 µg/disc (MSSA ATCC 25923; Staphylococcus aureus, 216 h, read-out: Average zone diameter, MSSA ATCC 25923, 360 μg oritavancin in 5% P80, with prediffusion (FIG. 1D), disks stored 9 days) of 17 mm. For the same molecule, the zone of inhibition at 360 µg/disc (MSSA ATCC 25923; Staphylococcus aureus, 216 h, read-out: Average zone diameter, MSSA ATCC 25923, 360 μg oritavancin in 5% P80, without prediffusion (FIG. 1B), disks stored 9 days) was 14.8 mm, the zone of inhibition at 360 µg/disc (MSSA ATCC 25923; Staphylococcus aureus, 336 h, read-out: Zone diameter (mm ± SD), ATCC 25923, 360 μg in 5% P80, Experiment 1, disks stored 14 days, no prediffusion) was 15.3 ± 0.4 mm and the zone of inhibition at 360 µg/disc (MSSA ATCC 25923; Staphylococcus aureus, read-out: Average zone diameter, ATCC 25923, 360 μg oritavancin, excipient 5% P80, disks stored 5 days at room temperature, 3 h prediffusion, average of 2 disks) was 19 mm. For the same molecule, the zone of inhibition at 45 µg/disc (MSSA ATCC 25923; Staphylococcus aureus, read-out: Average zone diameter, MSSA ATCC 25923, 45 μg oritavancin in 0.002% P80, CAMHA containing 1% P80, no prediffusion) was 12 mm.
